# Data: article PMC3927474, “Whole body synthesis rates of DHA from α-linolenic acid are greater than brain DHA accretion and uptake rates in adult rats” (Journal of Lipid Research, 2014)
# Tests used:
# Type in all cases: in vivo, rat
# [1] = Brain DHA uptake study: ^14C-DHA infusion; conditions: for Brain DHA uptake rate: 5 min ^14C-DHA infusion, 15 wk diet
# Description: At 15 weeks postweaning, a surgery was performed to implant a catheter into the jugular vein (described above). […] After 5 min of ^14C-DHA infusion rats were euthanized by high-energy head-focused microwave fixation (13.5 kW for 1.6 s). The brains were then removed, dissected sagittally and stored at −80°C until analysis.
# A known portion of the plasma TLE was then added to a scintillation vial with 5 ml of scintillation cocktail (GE Healthcare Life Sciences, Baie d'Urfe, QC, Canada). Radioactivity was measured using liquid scintillation counting to determine the plasma AUC for radioactivity. For plasma samples drawn at time 0 s of the infusion, the unesterified lipids were isolated by TLC and quantified using GC-FID (described above).
# Radioactivity was quantified by a Packard TRI-CARB2900TR liquid scintillation analyzer (Packard, Meriden, CT) with a detector efficiency of 48.8%. Radioactivity was expressed in disintegrations per minute; then converted to nCi.
# Brain hemispheres were homogenized and lipids extracted as described above. A known portion of the TLE was then added to a scintillation tube with 5 ml of scintillation cocktail. Radioactivity was quantified using liquid scintillation counting.
# To determine the brain DHA uptake rate, the incorporation coefficient for DHA from the unesterified plasma pool into the brain total lipid pool is ([26]):(Eq. 5) k^*=cbr*(T)/∫0Tcpl*dt where cbr*(T) is the total brain radioactivity at the end of the infusion and ∫0Tcpl*dt is the plasma radioactivity AUC.
# Multiplying the incorporation coefficient by the concentration of plasma unesterified DHA (cpl) allows for the determination of the brain DHA uptake rate:(Eq. 6) Jin=k^*cpl
# 15-lipoxygenase = assay: Brain gene expression (TLDA qPCR); conditions: 15 wk diet; control diet = 1
# Description: (§1) RNA was extracted from the flash-frozen half brains of the 15 week postweaning rats. The brain was briefly thawed and dissected to isolate the brainstem, cerebellum, cortex, hippocampus, striatum, and the rest of the brain. RNA was extracted from the brain regions using Trizol reagent (Ambion; Life Technologies, Burlington, ON, Canada) according to the manufacturer's protocol. […] Chloroform was added to the Trizol reagent at a ratio of 1:5 (chloroform:Trizol reagent) and the solution was mixed and incubated at room temperature. The solution was then centrifuged at 12,000 g for 15 min at 4°C. […] The samples were then centrifuged at 12,000 g for 10 min at 4°C to precipitate the RNA pellet. […] The pellet was allowed to air dry, and was then dissolved in RNase-free water. A Nanodrop 1000 (NanoDrop Technologies Inc., Wilmington, DE) was used to determine the concentration and purity of each sample by measuring absorbance at 260 and 280 nm. Each sample was aliquoted to make 1 μg of RNA per 10 μl of sample and stored at -80°C. A high-capacity cDNA reverse transcription kit (Applied Biosystems, Burlington, ON, Canada) was used to reverse transcribe 1 μg of RNA according to the manufacturer's instructions. Newly synthesized cDNA was stored at -20°C until the following day when it was loaded onto TaqMan low density array (TLDA) plates. Quantitative real-time PCR was performed using TLDA (Applied Biosystems) on the 7900HT real-time PCR system (Applied Biosystems). cDNA (50 ng) was diluted with water to make a volume of 50 μl and mixed with 50 μl of TaqMan Universal PCR Master Mix (Applied Biosystems). The mixture was then loaded onto a customized preconfigured 384-well TLDA plate according to the manufacturer's protocol. TaqMan gene expression assays were used to assess 21 genes that were previously reported to be differentially expressed with n-3 deprivation. […] All genes were normalized to phosphoglycerate kinase 1. Similar results were found when normalizing to β-actin or 18S rRNA.
# dopamine receptor D2 = assay: Brain gene expression (TLDA qPCR); conditions: 15 wk diet; control diet = 1
# Description: as §1
# group 2a sPLA2 = assay: Brain gene expression (TLDA qPCR); conditions: 15 wk diet; control diet = 1
# Description: as §1
# group 4 cPLA2 = assay: Brain gene expression (TLDA qPCR); conditions: 15 wk diet; control diet = 1
# Description: as §1
# retnoid X receptor α = assay: Brain gene expression (TLDA qPCR); conditions: 15 wk diet; control diet = 1
# Description: as §1
# transthyretin = assay: Brain gene expression (TLDA qPCR); conditions: 15 wk diet; control diet = 1
# Description: as §1
# α-synuclein = assay: Brain gene expression (TLDA qPCR); conditions: 15 wk diet; control diet = 1
# Description: as §1
# β-actin = assay: Brain gene expression (TLDA qPCR); conditions: 15 wk diet; control diet = 1
# Description: as §1
smiles,measurement,setting,value
"CC/C=C\C/C=C\C/C=C\CCCCCCCC(=O)O [ALA, α-linolenic acid]",Brain DHA uptake rate,[1],467.6 ± 93.7 nmol/day
same,Brain DHA uptake rate,[1]; listed as ALA diet,468 nmol/day
same,Brainstem gene expression: 15 LOX,15-lipoxygenase,0.91 RQ
same,Cerebellum gene expression: 15 LOX,15-lipoxygenase,0.63 RQ
same,Cortex gene expression: 15 LOX,15-lipoxygenase,0.77 RQ
same,Hippocampus gene expression: 15 LOX,15-lipoxygenase,0.74 RQ
same,Rest of brain gene expression: 15 LOX,15-lipoxygenase,0.62 RQ
same,Striatum gene expression: 15 LOX,15-lipoxygenase,1.00 RQ
same,Brainstem gene expression: DR D2,dopamine receptor D2,0.96 RQ
same,Cerebellum gene expression: DR D2,dopamine receptor D2,1.13 RQ
same,Cortex gene expression: DR D2,dopamine receptor D2,1.11 RQ
same,Hippocampus gene expression: DR D2,dopamine receptor D2,1.27 RQ
same,Rest of brain gene expression: DR D2,dopamine receptor D2,1.00 RQ
same,Striatum gene expression: DR D2,dopamine receptor D2,1.20 RQ
same,Brainstem gene expression: sPLA2,group 2a sPLA2,0.72 RQ
same,Cerebellum gene expression: sPLA2,group 2a sPLA2,0.86 RQ
same,Cortex gene expression: spla2,group 2a sPLA2,0.85 RQ
same,Hippocampus gene expression: sPLA2,group 2a sPLA2,1.08 RQ
same,Rest of brain gene expression: sPLA2,group 2a sPLA2,0.67 RQ
same,Striatum gene expression: sPLA2,group 2a sPLA2,0.46 RQ
same,Brainstem gene expression: cPLA2,group 4 cPLA2,0.98 RQ
same,Cerebellum gene expression: cPLA2,group 4 cPLA2,1.17 RQ
same,Cortex gene expression: cPLA2,group 4 cPLA2,0.93 RQ
same,Hippocampus gene expression: cPLA2,group 4 cPLA2,1.10 RQ
same,Rest of brain gene expression: cPLA2,group 4 cPLA2,0.85 RQ
same,Striatum gene expression: cPLA2,group 4 cPLA2,1.04 RQ
same,Brainstem gene expression: RXRa,retnoid X receptor α,0.99 RQ
same,Cerebellum gene expression: RXRa,retnoid X receptor α,1.15 RQ
same,Cortex gene expression: RXR a,retnoid X receptor α,1.02 RQ
same,Hippocampus gene expression: RXR a,retnoid X receptor α,1.08 RQ
same,Rest of brain gene expression: RXR a,retnoid X receptor α,1.05 RQ
same,Striatum gene expression: RXRa,retnoid X receptor α,1.14 RQ
same,Brainstem gene expression: TTR,transthyretin,0.93 RQ
same,Cerebellum gene expression: TTR,transthyretin,1.75 RQ
same,Cortex gene expression: TTR,transthyretin,0.75 RQ
same,Hippocampus gene expression: TTR,transthyretin,6.67 RQ
same,Rest of brain gene expression: TTR,transthyretin,0.71 RQ
same,Striatum gene expression: TTR,transthyretin,2.37 RQ
same,Brainstem gene expression: SNCa,α-synuclein,0.95 RQ
same,Cerebellum gene expression: SNCa,α-synuclein,0.96 RQ
same,Cortex gene expression: SNCa,α-synuclein,1.08 RQ
same,Hippocampus gene expression: SNCa,α-synuclein,1.10 RQ
same,Rest of brain gene expression: SNCa,α-synuclein,0.97 RQ
same,Striatum gene expression: SNCa,α-synuclein,1.05 RQ
same,Brainstem gene expression: b-actin,β-actin,1.11 RQ
same,Cerebellum gene expression: b actin,β-actin,1.10 RQ
same,Cortex gene expression: b actin,β-actin,1.05 RQ
same,Hippocampus gene expression: B-actin,β-actin,1.13 RQ
same,Rest of brain gene expression: b actin,β-actin,1.00 RQ
same,Striatum gene expression: b actin,β-actin,1.04 RQ
"CC/C=C\C/C=C\C/C=C\C/C=C\C/C=C\C/C=C\CCC(=O)O [DHA, Docosahexaenoic acid]",Brain DHA uptake rate,[1],858.6 ± 74.8 nmol/day
same,"Uptake rate of DHA into the brain, DHA-fed relative to ALA-fed rats","[1]; rat, in vivo",~2 fold
same,Brainstem gene expression: 15 LOX,15-lipoxygenase,1.68 RQ
same,Cerebellum gene expression: 15 LOX,15-lipoxygenase,1.35 RQ
same,Cortex gene expression: 15 LOX,15-lipoxygenase,1.04 RQ
same,Hippocampus gene expression: 15 LOX,15-lipoxygenase,0.96 RQ
same,Rest of brain gene expression: 15 LOX,15-lipoxygenase,1.07 RQ
same,Striatum gene expression: 15 LOX,15-lipoxygenase,1.46 RQ
same,Brainstem gene expression: DR D2,dopamine receptor D2,0.88 RQ
same,Cerebellum gene expression: DR D2,dopamine receptor D2,1.09 RQ
same,Cortex gene expression: DR D2,dopamine receptor D2,1.12 RQ
same,Hippocampus gene expression: DR D2,dopamine receptor D2,0.95 RQ
same,Rest of brain gene expression: DR D2,dopamine receptor D2,1.05 RQ
same,Striatum gene expression: DR D2,dopamine receptor D2,0.98 RQ
same,Brainstem gene expression: sPLA2,group 2a sPLA2,1.10 RQ
same,Cerebellum gene expression: sPLA2,group 2a sPLA2,0.98 RQ
same,Cortex gene expression: spla2,group 2a sPLA2,1.17 RQ
same,Hippocampus gene expression: sPLA2,group 2a sPLA2,0.93 RQ
same,Rest of brain gene expression: sPLA2,group 2a sPLA2,1.17 RQ
same,Striatum gene expression: sPLA2,group 2a sPLA2,0.68 RQ
same,Brainstem gene expression: cPLA2,group 4 cPLA2,6.22 RQ
same,Cerebellum gene expression: cPLA2,group 4 cPLA2,0.98 RQ
same,Cortex gene expression: cPLA2,group 4 cPLA2,1.11 RQ
same,Hippocampus gene expression: cPLA2,group 4 cPLA2,0.98 RQ
same,Rest of brain gene expression: cPLA2,group 4 cPLA2,0.99 RQ
same,Striatum gene expression: cPLA2,group 4 cPLA2,0.92 RQ
same,Brainstem gene expression: RXRa,retnoid X receptor α,1.02 RQ
same,Cerebellum gene expression: RXRa,retnoid X receptor α,0.98 RQ
same,Cortex gene expression: RXR a,retnoid X receptor α,1.03 RQ
same,Hippocampus gene expression: RXR a,retnoid X receptor α,1.10 RQ
same,Rest of brain gene expression: RXR a,retnoid X receptor α,1.17 RQ
same,Striatum gene expression: RXRa,retnoid X receptor α,1.02 RQ
same,Brainstem gene expression: TTR,transthyretin,0.46 RQ
same,Cerebellum gene expression: TTR,transthyretin,0.72 RQ
same,Cortex gene expression: TTR,transthyretin,1.49 RQ
same,Hippocampus gene expression: TTR,transthyretin,2.40 RQ
same,Rest of brain gene expression: TTR,transthyretin,1.08 RQ
same,Striatum gene expression: TTR,transthyretin,0.66 RQ
same,Brainstem gene expression: SNCa,α-synuclein,2.25 RQ
same,Cerebellum gene expression: SNCa,α-synuclein,0.84 RQ
same,Cortex gene expression: SNCa,α-synuclein,1.15 RQ
same,Hippocampus gene expression: SNCa,α-synuclein,1.19 RQ
same,Rest of brain gene expression: SNCa,α-synuclein,1.09 RQ
same,Striatum gene expression: SNCa,α-synuclein,0.97 RQ
same,Brainstem gene expression: b-actin,β-actin,1.10 RQ
same,Cerebellum gene expression: b actin,β-actin,0.98 RQ
same,Cortex gene expression: b actin,β-actin,1.05 RQ
same,Hippocampus gene expression: B-actin,β-actin,1.12 RQ
same,Rest of brain gene expression: b actin,β-actin,1.08 RQ
same,Striatum gene expression: b actin,β-actin,0.92 RQ
